Measurements published in US20240287007A1, “N-(1,3,4-OXADIAZOL-2-YL)PHENYLCARBOXAMIDES AS HERBICIDES” (BAYER AKTIENGESELLSCHAFT, priority 2021, published 2024).

What was measured:
Format in all cases: in vivo
KCHSC (Kochia scoparia) [1] = experiment: Pre-emergence herbicidal effect against KCHSC; settings: scored visually after 3 weeks
Excerpt: (§1) Seeds of monocotyledonous and dicotyledonous weed plants and crop plants are laid out in sandy loam soil in wood-fiber pots and covered with soil. The compounds of the invention, formulated in the form of wettable powders (WP) or as emulsion concentrates (EC), are then applied to the surface of the covering soil as aqueous suspension or emulsion at a water application rate equating to 600 to 800 l/ha with addition of 0.2% wetting agent. After the treatment, the pots are placed in a greenhouse and kept under good growth conditions for the trial plants. The damage to the test plants is scored visually after a test period of 3 weeks by comparison with untreated controls (herbicidal activity in percent (%): 100% activity=the plants have died, 0% activity=like control plants).

VIOTR (Viola tricolor) [2] = experiment: Pre-emergence herbicidal effect against VIOTR; settings: scored visually after 3 weeks
Excerpt: as §1

[3] = system: POLCO (Polygonum convolvulus); experiment: Pre-emergence herbicidal effect against POLCO; settings: 80 g/ha, scored visually after 3 weeks
Excerpt: as §1

[4] = system: DIGSA (Digitaria sanguinalis); experiment: Pre-emergence herbicidal effect against DIGSA; settings: scored visually after 3 weeks
Excerpt: as §1

KCHSC (Kochia scoparia) [5] = experiment: Post-emergence herbicidal action against KCHSC; settings: visual assessment after about 3 weeks
Method: (§2) Seeds of monocotyledonous and dicotyledonous weed and crop plants are laid out in sandy loam soil in wood-fiber pots, covered with soil and cultivated in a greenhouse under good growth conditions. 2 to 3 weeks after sowing, the trial plants are treated at the one-leaf stage. The compounds of the invention, formulated in the form of wettable powders (WP) or as emulsion concentrates (EC), are then sprayed onto the green parts of the plants as aqueous suspension or emulsion at a water application rate equating to 600 to 800 l/ha with addition of 0.2% wetting agent. After the test plants have been left to stand in the greenhouse under optimal growth conditions for about 3 weeks, the action of the preparations is assessed visually in comparison to untreated controls (herbicidal action in percent (%): 100% activity=the plants have died, 0% activity=like control plants).

[6] = system: ABUTH (Abutylon threophrasti); experiment: Post-emergence herbicidal action against ABUTH; settings: 80 g/ha, visual assessment after about 3 weeks
Method: as §2

SETVI (Setaria viridis) [7] = experiment: Post-emergence herbicidal action against SETVI; settings: visual assessment after about 3 weeks
Method: as §2

[8] = system: AMARE (Amaranthus retroflexus); experiment: Pre-emergence herbicidal effect against AMARE; settings: scored visually after 3 weeks
Excerpt: as §1

[9] = system: ECHCG (Echinochloa crus-galli); experiment: Pre-emergence herbicidal effect against ECHCG; settings: 80 g/ha, scored visually after 3 weeks
Excerpt: as §1

VIOTR (Viola tricolor) [10] = experiment: Post-emergence herbicidal action against VIOTR; settings: visual assessment after about 3 weeks
Method: as §2

[11] = system: DIGSA (Digitaria sanguinalis); experiment: Post-emergence herbicidal action against DIGSA; settings: visual assessment after about 3 weeks
Method: as §2

SETVI (Setaria viridis) [12] = experiment: Pre-emergence herbicidal effect against SETVI; settings: 80 g/ha, scored visually after 3 weeks
Excerpt: as §1

[13] = system: ABUTH (Abutylon threophrasti); experiment: Pre-emergence herbicidal effect against ABUTH; settings: scored visually after 3 weeks
Excerpt: as §1

[14] = system: AMARE (Amaranthus retroflexus); experiment: Post-emergence herbicidal action against AMARE; settings: visual assessment after about 3 weeks
Method: as §2

[15] = system: MATIN (Matricaria inodora); experiment: Post-emergence herbicidal action against MATIN; settings: visual assessment after about 3 weeks
Method: as §2

VERPE (Veronica persica) = experiment: Post-emergence herbicidal action against VERPE; settings: 80 g/ha, visual assessment after about 3 weeks
Method: as §2

[16] = system: PHBPU (Pharbitis purpurea); experiment: Post-emergence herbicidal action against PHBPU; settings: visual assessment after about 3 weeks
Method: as §2

| Compound | Pre-emergence effect at 20 g/ha against KCHSC in % (KCHSC (Kochia scoparia) [1]) [%] | Pre-emergence effect at 80 g/ha against KCHSC in % (KCHSC (Kochia scoparia) [1]) [%] | Pre-emergence effect at 20 g/ha against VIOTR in % (VIOTR (Viola tricolor) [2]) [%] | Pre-emergence effect at 80 g/ha against VIOTR in % (VIOTR (Viola tricolor) [2]) [%] | Pre-emergence effect at 20 g/ha against DIGSA in % [4] [%] | Pre-emergence effect at 80 g/ha against DIGSA in % [4] [%] | Post-emergence effect at 20 g/ha against KCHSC in % (KCHSC (Kochia scoparia) [5]) [%] | Post-emergence effect at 80 g/ha against KCHSC in % (KCHSC (Kochia scoparia) [5]) [%] | Post-emergence effect at 80 g/ha against ABUTH in % [6] [%] | Post-emergence effect at 20 g/ha against SETVI in % (SETVI (Setaria viridis) [7]) [%] | Post-emergence effect at 80 g/ha against SETVI in % (SETVI (Setaria viridis) [7]) [%] | Pre-emergence effect at 80 g/ha against AMARE in % [8] [%] | Pre-emergence effect at 80 g/ha against ECHCG in % [9] [%] | Post-emergence effect at 20 g/ha against VIOTR in % (VIOTR (Viola tricolor) [10]) [%] | Post-emergence effect at 80 g/ha against VIOTR in % (VIOTR (Viola tricolor) [10]) [%] | Post-emergence effect at 20 g/ha against DIGSA in % [11] [%] | Post-emergence effect at 80 g/ha against DIGSA in % [11] [%] | Pre-emergence effect at 80 g/ha against SETVI in % (SETVI (Setaria viridis) [12]) [%] | Pre-emergence effect at 80 g/ha against ABUTH in % [13] [%] | Post-emergence effect at 20 g/ha against AMARE in % [14] [%] | further results |
| --- | --- | --- | --- | --- | --- | --- | --- | --- | --- | --- | --- | --- | --- | --- | --- | --- | --- | --- | --- | --- | --- |
| CSc1c(OC(F)F)ccc(C(=O)Nc2nnco2)c1Cl [Example 1-21, 2-chloro-4-(difluoromethoxy)-3-(methylsulfanyl)-N-(1,3,4-oxadiazol-2-yl)benzamide] | 90 | 90 | 100 | 100 | 90 | 100 | 90 | 100 | 80 | 80 | 100 | 100 | 100 | 100 | 100 | 90 | 90 | 90 | 100 | 100 | Pre-emergence effect at 80 g/ha against POLCO in % [3]: 100%; Pre-emergence effect at 20 g/ha against AMARE in % ([8]; 20 g/ha): 90%; Post-emergence effect at 80 g/ha against AMARE in % [14]: 100% |
| CSc1c(OC(F)(F)F)ccc(C(=O)Nc2nnco2)c1Cl [Example 1-31, 2-chloro-3-(methylsulfanyl)-N-(1,3,4-oxadiazol-2-yl)-4-(trifluoromethoxy)benzamide] | 90 | 100 | 90 | 90 | 90 | 100 | 100 | 100 | 90 | 80 | 90 | 100 | 100 | 90 | 100 | 90 | 90 | 100 | 100 | 100 | Post-emergence effect at 20 g/ha against MATIN in % ([15]; 20 g/ha): 80%; Post-emergence effect at 80 g/ha against MATIN in % ([15]; 80 g/ha): 90%; Post-emergence effect at 80 g/ha against VERPE in % (VERPE (Veronica persica)): 80%; Post-emergence effect at 20 g/ha against PHBPU in % ([16]; 20 g/ha): 90%; Post-emergence effect at 80 g/ha against PHBPU in % ([16]; 80 g/ha): 90%; Pre-emergence effect at 20 g/ha against ABUTH in % ([13]; 20 g/ha): 90%; Post-emergence effect at 80 g/ha against AMARE in % [14]: 100% |
